Counter-ions that a name gives are not always drawn.
Tested on: mice
Experiment: Neuropharmacological Assay (SmartCube): automated behavioral signature of compound-treated mice compared with a database of reference drug classes
Type: in vivo
Conditions: for MED (minimal effective dose) / minimal effective dose: dose having 45% or more total activity in SmartCube, i.p., if only one dose was tested, that dose is shown; for AG / AN / AP / HL / PS / SH / UK / AD / AX / CE / MS: probability that activity matches this class of agents, 3.0 mg/kg i.p., 15 min before test; for minimal effective dose: Mus musculus, ip, read-out: MED (minimal effective dose)
Source text: Neurosci. 2011 Sep. 9; 5: 103 (doi: 10.3389/fnins.2011.00103) (“Roberds”). As reported in Roberds, because psychiatric diseases generally result from disorders of cell-cell communication or circuitry, intact systems are useful in detecting improvement in disease-relevant endpoints. These endpoints are typically behavioral in nature, often requiring human observation and interpretation. To facilitate testing of multiple compounds for behavioral effects relevant to psychiatric disease, PsychoGenics, Inc. (Tarrytown, NY, “PGI”) developed SmartCube™ an automated system in which behaviors of compound-treated mice are captured by digital video and analyzed with computer algorithms. (D. Brunner et al. Drug Discov. Today 2002, 7:S107-S112). PGI Analytical Systems uses data from SmartCube™ to compare the behavioral signature of a test compound to a database of behavioral signatures obtained using a large set of diverse reference compounds. (The composition of the database as well as validation of the method is further described in Roberds). In this way, the neuropharmacological effects of a test compound can be predicted by similarity to major classes of compounds, such as antipsychotics, anxiolytics and antidepressants.
The SmartCube™ system produces an activity signature indicating the probability that the activity of the test compound at the administered dose matches a given class of neuropharmacological agents. (See, e.g., Roberds, FIGS. 2 and 3). The test compound is simultaneously compared against multiple classes of agents; thus, a separate probability is generated for each behavioral effect measured (e.g., anxiolytic activity, analgesic activity, etc.). In table 2 below, these probabilities are reported for each behavioral effect measured as described in Table 1 below.
Provided compounds were dissolved in a mixture of Pharmasolve™ (N-methyl-2-pyrrolidone), polyethylene glycol and propylene glycol, and were injected i.p. 15 min. before the behavioral test. For each compound, injections were administered at 3 different doses. For each behavioral effect measured, results for the 3.0 mg/kg dose are presented. The potency of many of the compounds in the table was also determined in the SmartCube™ system. Test compounds were routinely examined at dose levels of 0.3, 1, 3 and 10 mg per kg (mpk), although the dose range was increased or decreased, if necessary, to obtain a full dose response curve. A compound's minimal effective dose (MED) is a measure of the compound's potency. The MED was defined as the dose (in mpk) having 45% or more total activity in SmartCube. If only one dose was tested, that dose is shown in the MED column of Table 2 even though the dose is not known to be the MED.

SMILES | MED (minimal effective dose) (hydrochloride) [mpk] | AG | AN | AP | HL | PS | SH | UK | AD (hydrochloride, 3 mg/kg) | AX (hydrochloride, 3 mg/kg) | MS (hydrochloride, 3 mg/kg) | AD | CE | MS | AP (hydrochloride, 3 mg/kg) | AX | UK (hydrochloride, 3 mg/kg) | further results
CNC1(C)CCc2ccsc2C1 (single isomer, unassigned) [Compound 50, N, 6-dimethyl-5,7-dihydro-4H-benzothiophen-6-amine hydrochloride] | 3.0 | ND (^ <4%) | ND (^ <4%) | ND (^ <4%) | ND (^ <4%) | ND (^ <4%) | ND (^ <4%) | ND (^ <4%) | +++ (≥49%) | ND (^ <4%) | ND (^ <4%) |  |  |  |  |  |  | CE (hydrochloride, 3 mg/kg): ND (^ <4%)
CNC1COc2cscc2C1 (single isomer, unassigned) [Compound 51, N-methyl-3,4-dihydro-2H-thieno[3,4-b]pyran-3-amine hydrochloride] | >10 | ND (^ <4%) | ND (^ <4%) |  | ND (^ <4%) | ND (^ <4%) | ND (^ <4%) | + (≥4%) |  | ND (^ <4%) |  | ND (^ <4%) | ND (^ <4%) | ND (^ <4%) | ND (^ <4%) |  |  | 
CNC1COc2cscc2C1 (single isomer, unassigned) [Compound 52, N-methyl-3,4-dihydro-2H-thieno[3,4-b]pyran-3-amine hydrochloride] | 3.0 | ND (^ <4%) | ND (^ <4%) |  | ND (^ <4%) | ND (^ <4%) | ND (^ <4%) | + (≥4%) |  | ++ (≥24%) |  | ND (^ <4%) | ND (^ <4%) | ND (^ <4%) | +++ (≥49%) |  |  | 
CNC1CCc2csc(Cl)c2C1 (single isomer, unassigned) [Compound 55, 3-chloro-N-methyl-4,5,6,7-tetrahydro-2-benzothiophen-5-amine hydrochloride] |  | ND (^ <4%) |  | ++ (≥24%) | ND (^ <4%) | ND (^ <4%) | ND (^ <4%) | ND (^ <4%) | ++ (≥24%) | + (≥4%) |  |  | ND (^ <4%) | ND (^ <4%) |  |  |  | minimal effective dose: 1 mg/kg; AN (hydrochloride, 3 mg/kg): ND (^ <4%)
CNC1CCc2csc(Cl)c2C1 (single isomer, unassigned) [Compound 56, 3-chloro-N-methyl-4,5,6,7-tetrahydro-2-benzothiophen-5-amine hydrochloride] |  | ND (^ <4%) |  | ++ (≥24%) | ND (^ <4%) | ND (^ <4%) | ND (^ <4%) | ND (^ <4%) | ND (^ <4%) | ++ (≥24%) |  |  | ND (^ <4%) | ND (^ <4%) |  |  |  | MED (minimal effective dose): 1.0 mpk; AN (hydrochloride, 3 mg/kg): + (≥4%)
CNC1CCc2c(csc2Cl)C1 (single isomer, unassigned) [Compound 57, 1-chloro-N-methyl-4,5,6,7-tetrahydro-2-benzothiophen-5-amine hydrochloride] |  | ND (^ <4%) | ND (^ <4%) |  | ND (^ <4%) | ND (^ <4%) | ND (^ <4%) |  | ++ (≥24%) |  | ND (^ <4%) |  | ND (^ <4%) |  | ++ (≥24%) | ND (^ <4%) | + (≥4%) | minimal effective dose: 1 mg/kg
CNC1CCc2c(csc2Cl)C1 (single isomer, unassigned) [Compound 58, 1-chloro-N-methyl-4,5,6,7-tetrahydro-2-benzothiophen-5-amine hydrochloride] |  | ND (^ <4%) | ND (^ <4%) |  | ND (^ <4%) | ND (^ <4%) | ND (^ <4%) |  | + (≥4%) |  | + (≥4%) |  | ND (^ <4%) |  | +++ (≥49%) | ND (^ <4%) | ND (^ <4%) | MED (minimal effective dose): 1.0 mpk
CNC1CCc2c(Cl)sc(Cl)c2C1 (single isomer, unassigned) [Compound 59, 1,3-dichloro-N-methyl-4,5,6,7-tetrahydro-2-benzothiophen-5-amine hydrochloride] |  | ND (^ <4%) | ND (^ <4%) |  | ND (^ <4%) | ND (^ <4%) | ND (^ <4%) | ND (^ <4%) |  | ++ (≥24%) |  | ND (^ <4%) | ND (^ <4%) | ND (^ <4%) | +++ (≥49%) |  |  | minimal effective dose: 3 mg/kg
CNC1CCc2c(Cl)sc(Cl)c2C1 (single isomer, unassigned) [Compound 60, 1,3-dichloro-N-methyl-4,5,6,7-tetrahydro-2-benzothiophen-5-amine hydrochloride] |  | ND (^ <4%) | ND (^ <4%) |  | ND (^ <4%) | ND (^ <4%) | ND (^ <4%) | ND (^ <4%) |  | +++ (≥49%) |  | ND (^ <4%) | ND (^ <4%) | ND (^ <4%) | + (≥4%) |  |  | MED (minimal effective dose): 3.0 mpk
CNC1CCc2csc(C(F)(F)F)c2C1 (single isomer, unassigned) [Compound 61, N-methyl-3-(trifluoromethyl)-4,5,6,7-tetrahydro-2-benzothiophen-5-amine hydrochloride] | 3.0 | ND (^ <4%) | ND (^ <4%) |  | ND (^ <4%) | ND (^ <4%) | ND (^ <4%) | ND (^ <4%) | + (≥4%) |  |  |  | ND (^ <4%) | ND (^ <4%) | +++ (≥49%) | ND (^ <4%) |  | 
CNC1CCc2csc(C(F)(F)F)c2C1 (single isomer, unassigned) [Compound 62, N-methyl-3-(trifluoromethyl)-4,5,6,7-tetrahydro-2-benzothiophen-5-amine hydrochloride] | 1 | ND (^ <4%) | ND (^ <4%) |  | ND (^ <4%) | ND (^ <4%) | ND (^ <4%) | ND (^ <4%) | ++++ (≥74%) |  |  |  | ND (^ <4%) | ND (^ <4%) | + (≥4%) | ND (^ <4%) |  | 
CNC1CCc2c(csc2C(F)(F)F)C1 (single isomer, unassigned) [Compound 63, N-methyl-1-(trifluoromethyl)-4,5,6,7-tetrahydro-2-benzothiophen-5-amine hydrochloride] | 1.0 | ND (^ <4%) | ND (^ <4%) | ND (^ <4%) | ND (^ <4%) | ND (^ <4%) | ND (^ <4%) |  |  | +++ (≥49%) | + (≥4%) | + (≥4%) | ND (^ <4%) |  |  |  | ND (^ <4%) | 
CNC1CCc2c(csc2C(F)(F)F)C1 (single isomer, unassigned) [Compound 64, N-methyl-1-(trifluoromethyl)-4,5,6,7-tetrahydro-2-benzothiophen-5-amine hydrochloride] | 10 | ND (^ <4%) | ND (^ <4%) | ND (^ <4%) | ND (^ <4%) | ND (^ <4%) | ND (^ <4%) |  |  | ND (^ <4%) | ND (^ <4%) | + (≥4%) | ND (^ <4%) |  |  |  | ++ (≥24%) | 
